Where a name gives a salt, the structure may show the parent alone.
Tests used:
ZR-75-1 cells = assay: Caspase cascade activation (N-(Ac-DEVD)-N'-ethoxycarbonyl-R110 fluorogenic substrate) in ZR-75-1 cells; assay type: cell-based, Human; conditions: ZR-75-1, 48 h incubation; for EC50: Homo sapiens, caspase activation potency; for ZR Ratio 48 hr: caspase activity: ratio of net RFU of test compound to control
Procedure: (§1) Human breast cancer cell lines T-47D and ZR-75-1 were grown according to media component mixtures designated by American Type Culture Collection +10% FCS (Invitrogen Corporation, Life Technologies division), in a 5% CO2-95% humidity incubator at 37° C. T-47D and ZR-75-1 cells were maintained at a cell density between 50 and 80% confluency at a cell density of 0.1 to 0.6×10^6 cells/ml. Cells were harvested at 600× g and resuspended at 0.65×10^6 cells/ml into appropriate media +10% FCS. An aliquot of […] of cells was added to a well of a […] microtiter plate containing 2.5 μl of a 10% DMSO in RPMI-1640 media solution containing 0.16 to 100 μM of 4-(3-methoxyanilino)-2-(2-pyridinyl)-6-(trifluoromethyl)pyrimidine or other test compound (0.016 to 10 μM final). An aliquot of 22.5 μl of cells was added to a well of a 384-well microtiter plate containing 2.5 μl of a 10% DMSO in RPMI-1640 media solution without test compound as the control sample. The samples were mixed by agitation and then incubated at 37° C. for 48 h in a 5% CO2-95% humidity incubator. After incubation, the samples were removed from the incubator and 25 μl of a solution containing 14 μM of N-(Ac-DEVD)-N′-ethoxycarbonyl-R110 fluorogenic substrate (Cytovia, Inc.; WO99/18856), 20% sucrose (Sigma), 20 mM DTT (Sigma), 200 mM NaCl (Sigma), 40 mM Na PIPES buffer pH 7.2 (Sigma), and 500 μg/ml lysolecithin (Calbiochem) was added. The samples were mixed by agitation and incubated at room temperature. Using a fluorescent plate reader (Model SpectraMax Gemini, Molecular Devices), an initial reading (T=0) was made approximately 1-2 min after addition of the substrate solution, employing excitation at 485 nm and emission at 530 nm, to determine the background fluorescence of the control sample. After the 3 h incubation, the samples were read for fluorescence as above (T=3 h).
(§2) The Relative Fluorescence Unit values (RFU) were used to calculate the sample readings as follows:
(§3) RFU(T=3h)−Control RFU(T=0)=Net RFU(T=3h)
(§4) The activity of caspase cascade activation was determined by the ratio of the net RFU value for 4-(3-methoxyanilino)-2-(2-pyridinyl)-6-(trifluoromethyl)pyrimidine or other test compound to that of control samples. The EC50 (nM) was determined by a sigmoidal dose-response calculation (Prism 2.0, GraphPad Software Inc.).

T-47D cells = assay: Caspase cascade activation (N-(Ac-DEVD)-N'-ethoxycarbonyl-R110 fluorogenic substrate) in T-47D cells; assay type: cell-based, Human; conditions: 48 h incubation; for EC50: Homo sapiens, T47D, caspase activation potency, read-out: T47 EC50; for T47 Ratio 48 hr: caspase activity: ratio of net RFU of test compound to control
Procedure: as §1, §2, §3, §4

`COc1cccc(CNc2cc(C(F)(F)F)nc(-c3cccnc3)n2)c1` [Example 104, 4-(3-Methoxybenzylamino)-2-(3-pyridinyl)-6-(trifluoromethyl)pyrimidine] was tested, and the EC50 (ZR-75-1 cells) was over 5000 nM, the “ZR Ratio 48 hr” value (ZR-75-1 cells) was 1.7 and the EC50 (T-47D cells) was over 5000 nM. The “T47 Ratio 48 hr” value (T-47D cells) was 1.1.
For `Oc1ccc(Cl)c(Nc2cc(C(F)(F)F)nc(-c3cccnc3)n2)c1` [Example 106, 4-(2-Chloro-5-hydroxyanilino)-2-(3-pyridinyl)-6-(trifluoromethyl)pyrimidine], the EC50 (ZR-75-1 cells) was 982 nM, the “ZR Ratio 48 hr” value (ZR-75-1 cells) was 2.4 and the EC50 (T-47D cells) was 183 nM. For the same molecule, the “T47 Ratio 48 hr” value (T-47D cells) was 9.0.
In the case of `Oc1ccc(Cl)c(Nc2cc(C(F)(F)F)nc(-c3ccncc3)n2)c1` [Example 107, 4-(2-Chloro-5-hydroxyanilino)-2-(4-pyridinyl)-6-(trifluoromethyl)pyrimidine], the EC50 (ZR-75-1 cells) is reported as 123 nM, the “ZR Ratio 48 hr” value (ZR-75-1 cells) is reported as 5.3 and the EC50 (T-47D cells) is reported as 63 nM. For the same molecule, the “T47 Ratio 48 hr” value (T-47D cells) was 8.0.
`Cc1cc(Nc2c(C)cccc2C)nc(-c2ccccn2)n1` [Example 108, 4-(2,6-Dimethylanilino)-6-methyl-2-(2-pyridinyl)pyrimidine] was tested, and the EC50 (ZR-75-1 cells) was 4370 nM, the “ZR Ratio 48 hr” value (ZR-75-1 cells) was 2.4 and the EC50 (T-47D cells) was over 5000 nM. For the same molecule, the “T47 Ratio 48 hr” value (T-47D cells) was 0.9.
With `COc1cccc(Nc2cc(-c3ccccn3)nc(-c3ccccn3)n2)c1` [Example 109, 4-(3-Methoxyanilino)-2,6-di(2-pyridinyl)pyrimidine] the EC50 (ZR-75-1 cells) was 2590 nM, the “ZR Ratio 48 hr” value (ZR-75-1 cells) was 3.6 and the EC50 (T-47D cells) was 1500 nM. For the same molecule, the “T47 Ratio 48 hr” value (T-47D cells) was 3.9.
For `COc1ccc(OC)c(Nc2cc(-c3ccccn3)nc(-c3ccccn3)n2)c1` [Example 110, 4-(2,5-Dimethoxyanilino)-2,6-di(2-pyridinyl)pyrimidine], the EC50 (ZR-75-1 cells) was 648 nM, the “ZR Ratio 48 hr” value (ZR-75-1 cells) was 11.6 and the EC50 (T-47D cells) was 576 nM. The “T47 Ratio 48 hr” value (T-47D cells) was 8.9.
`COc1ccc(C)c(Nc2cc(-c3ccccn3)nc(-c3ccccn3)n2)c1` [Example 111, 4-(5-Methoxy-2-methylanilino)-2,6-di(2-pyridinyl)pyrimidine] was tested, and the EC50 (ZR-75-1 cells) was 2570 nM, the “ZR Ratio 48 hr” value (ZR-75-1 cells) was 3.9 and the EC50 (T-47D cells) was 1420 nM. For the same molecule, the “T47 Ratio 48 hr” value (T-47D cells) was 4.0.
In the case of `COc1ccc(C)cc1Nc1cc(-c2ccccn2)nc(-c2ccccn2)n1.Cl` [Example 112, 4-(2-Methoxy-5-methylanilino)-2,6-di(2-pyridinyl)pyrimidine], the EC50 (ZR-75-1 cells) is reported as 2370 nM, the “ZR Ratio 48 hr” value (ZR-75-1 cells) is reported as 2.9 and the EC50 (T-47D cells) is reported as 1860 nM. The “T47 Ratio 48 hr” value (T-47D cells) was 3.3.
With `COc1ccc(Cl)c(Nc2cc(-c3ccccn3)nc(-c3ccccn3)n2)c1.Cl` [Example 113, 4-(2-Chloro-5-methoxyanilino)-2,6-di(2-pyridinyl)pyrimidine] the EC50 (ZR-75-1 cells) was 2730 nM, the “ZR Ratio 48 hr” value (ZR-75-1 cells) was 4.1 and the EC50 (T-47D cells) was 1430 nM. For the same molecule, the “T47 Ratio 48 hr” value (T-47D cells) was 4.4.
With `Cc1ccc(C)c(Nc2cc(-c3ccccn3)nc(-c3ccccn3)n2)c1` [Example 114, 4-(2,5-Dimethylanilino)-2,6-di(2-pyridinyl)pyrimidine] the EC50 (ZR-75-1 cells) was 2800 nM, the “ZR Ratio 48 hr” value (ZR-75-1 cells) was 3.7 and the EC50 (T-47D cells) was 2540 nM. The “T47 Ratio 48 hr” value (T-47D cells) was 3.6.
For `Cc1ccc(C)c(Nc2cc(C(F)(F)F)nc(-c3ccncc3)n2)c1` [Example 115, 4-(2,5-Dimethylanilino)-2-(4-pyridinyl)-6-(trifluoromethyl)pyrimidine hydrochloride], the EC50 (ZR-75-1 cells) was 59 nM, the “ZR Ratio 48 hr” value (ZR-75-1 cells) was 11.6 and the EC50 (T-47D cells) was 112 nM. For the same molecule, the “T47 Ratio 48 hr” value (T-47D cells) was 14.2.
In the case of `COc1ccc(C)cc1Nc1cc(C(F)(F)F)nc(-c2ccncc2)n1` [Example 116, 4-(2-Methoxy-5-methylanilino)-2-(4-pyridinyl)-6-(trifluoromethyl)pyrimidine], the EC50 (ZR-75-1 cells) is reported as 73 nM, the “ZR Ratio 48 hr” value (ZR-75-1 cells) is reported as 8.8 and the EC50 (T-47D cells) is reported as 71 nM. For the same molecule, the “T47 Ratio 48 hr” value (T-47D cells) was 13.7.
For `Cc1ccc(O)cc1Nc1cc(C(F)(F)F)nc(-c2cccnc2)n1` [Example 117, 4-(5-Hydroxy-2-methylanilino)-2-(3-pyridinyl)-6-(trifluoromethyl)pyrimidine], the EC50 (ZR-75-1 cells) was 276 nM, the “ZR Ratio 48 hr” value (ZR-75-1 cells) was 6.3 and the EC50 (T-47D cells) was 138 nM. The “T47 Ratio 48 hr” value (T-47D cells) was 11.3.
For `Cc1ccc(O)cc1Nc1cc(C(F)(F)F)nc(-c2ccncc2)n1` [Example 118, 4-(5-Hydroxy-2-methylanilino)-2-(4-pyridinyl)-6-(trifluoromethyl)pyrimidine], the EC50 (ZR-75-1 cells) was 31 nM, the “ZR Ratio 48 hr” value (ZR-75-1 cells) was 9.9 and the EC50 (T-47D cells) was 34 nM. The “T47 Ratio 48 hr” value (T-47D cells) was 8.8.
With `Cc1ccc(C#N)c(Nc2cc(C(F)(F)F)nc(-c3cccnc3)n2)c1` [Example 120, 4-(2-Cyano-5-methylanilino)-2-(3-pyridinyl)-6-(trifluoromethyl)pyrimidine] the EC50 (ZR-75-1 cells) was 2400 nM, the “ZR Ratio 48 hr” value (ZR-75-1 cells) was 4.5 and the EC50 (T-47D cells) was 2690 nM. The “T47 Ratio 48 hr” value (T-47D cells) was 8.2.
In the case of `Cc1cc(C)cc(Nc2cc(C(F)(F)F)nc(-c3cccnc3)n2)c1` [Example 121, 4-(3,5-Dimethylanilino)-2-(3-pyridinyl)-6-(trifluoromethyl)pyrimidine], the EC50 (ZR-75-1 cells) is reported as 380 nM, the “ZR Ratio 48 hr” value (ZR-75-1 cells) is reported as 9.9 and the EC50 (T-47D cells) is reported as 480 nM. The “T47 Ratio 48 hr” value (T-47D cells) was 11.2.
`COc1cc(Nc2cc(C(F)(F)F)nc(-c3cccnc3)n2)cc(OC)c1.Cl` [Example 122, 4-(3,5-Dimethoxyanilino)-2-(3-pyridinyl)-6-(trifluoromethyl)pyrimidine hydrochloride] was tested, and the EC50 (ZR-75-1 cells) was 192 nM, the “ZR Ratio 48 hr” value (ZR-75-1 cells) was 10.1 and the EC50 (T-47D cells) was 44 nM. For the same molecule, the “T47 Ratio 48 hr” value (T-47D cells) was 11.1.
`Cc1ccc(Cl)c(Nc2cc(C(F)(F)F)nc(-c3cccnc3)n2)c1` [Example 123, 4-(2-Chloro-5-methylanilino)-2-(3-pyridinyl)-6-(trifluoromethyl)pyrimidine] was tested, and the EC50 (ZR-75-1 cells) was 725 nM, the “ZR Ratio 48 hr” value (ZR-75-1 cells) was 15.8 and the EC50 (T-47D cells) was 763 nM. The “T47 Ratio 48 hr” value (T-47D cells) was 21.2.
With `COc1cc(Nc2cc(C(F)(F)F)nc(-c3cccnc3)n2)cc(C(F)(F)F)c1` [Example 124, 4-(3-Methoxy-5-trifluoromethylanilino)-2-(3-pyridinyl)-6-(trifluoromethyl)pyrimidine] the EC50 (ZR-75-1 cells) was 688 nM, the “ZR Ratio 48 hr” value (ZR-75-1 cells) was 16.3 and the EC50 (T-47D cells) was 720 nM. For the same molecule, the “T47 Ratio 48 hr” value (T-47D cells) was 19.9.
`COc1ccc(Cl)c(Nc2cc(C(F)(F)F)nc(-c3ccc(C(F)(F)F)nc3)n2)c1` [Example 125, 4-(2-Chloro-5-methoxyanilino)-2-[6-(trifluoromethyl)-3-pyridinyl]-6-(trifluoromethyl)pyrimidine] was tested, and the EC50 (ZR-75-1 cells) was 2240 nM, the “ZR Ratio 48 hr” value (ZR-75-1 cells) was 8.1 and the EC50 (T-47D cells) was 3470 nM. For the same molecule, the “T47 Ratio 48 hr” value (T-47D cells) was 4.4.
`COc1ccc(Br)cc1Nc1cc(C(F)(F)F)nc(-c2cccnc2)n1` [Example 126, 4-(5-Bromo-2-methoxyanilino)-2-(3-pyridinyl)-6-(trifluoromethyl)pyrimidine] was tested, and the EC50 (ZR-75-1 cells) was 353 nM, the “ZR Ratio 48 hr” value (ZR-75-1 cells) was 5.9 and the EC50 (T-47D cells) was 222 nM. The “T47 Ratio 48 hr” value (T-47D cells) was 12.0.
With `COc1ccc(Br)c(Nc2cc(C(F)(F)F)nc(-c3cccnc3)n2)c1` [Example 127, 4-(2-Bromo-5-methoxyanilino)-2-(3-pyridinyl)-6-(trifluoromethyl)pyrimidine] the EC50 (ZR-75-1 cells) was 550 nM, the “ZR Ratio 48 hr” value (ZR-75-1 cells) was 5.3 and the EC50 (T-47D cells) was 279 nM. The “T47 Ratio 48 hr” value (T-47D cells) was 10.3.
In the case of `Cc1cc(Nc2cc(C(F)(F)F)nc(-c3cccnc3)n2)cc(C(F)(F)F)c1` [Example 128, 4-[3-Methyl-5-(trifluoromethyl)anilino]-2-(3-pyridinyl)-6-(trifluoromethyl)pyrimidine], the EC50 (ZR-75-1 cells) is reported as over 5000 nM, the “ZR Ratio 48 hr” value (ZR-75-1 cells) is reported as 1.5 and the EC50 (T-47D cells) is reported as over 5000 nM. The “T47 Ratio 48 hr” value (T-47D cells) was 1.4.
For `COc1cc(Nc2cc(C(F)(F)F)nc(-c3cccnc3)n2)c(OC)cc1Cl` [Example 130, 4-(4-Chloro-2,5-dimethoxyanilino)-2-(3-pyridinyl)-6-(trifluoromethyl)pyrimidine hydrochloride], the EC50 (ZR-75-1 cells) was 167 nM, the “ZR Ratio 48 hr” value (ZR-75-1 cells) was 9.7 and the EC50 (T-47D cells) was 295 nM. For the same molecule, the “T47 Ratio 48 hr” value (T-47D cells) was 11.3.
With `COc1ccc(Cl)c(Nc2cc(C)nc(N3CCOCC3)n2)c1` [Example 131, 4-(6-Chloro-3-methoxyanilino)-2-morpholino-6-(methyl)pyrimidine] the EC50 (ZR-75-1 cells) was over 5000 nM, the “ZR Ratio 48 hr” value (ZR-75-1 cells) was 1.2 and the EC50 (T-47D cells) was over 5000 nM. The “T47 Ratio 48 hr” value (T-47D cells) was 1.2.
`COc1cc(Nc2cc(C(F)(F)F)nc(-c3cccnc3)n2)c(C(C)=O)cc1OC` [Example 134, 4-(2-Acetyl-4,5-dimethoxyanilino)-2-(3-pyridinyl)-6-(trifluoromethyl)pyrimidine] was tested, and the EC50 (ZR-75-1 cells) was over 5000 nM, the “ZR Ratio 48 hr” value (ZR-75-1 cells) was 1.5 and the EC50 (T-47D cells) was 807 nM. For the same molecule, the “T47 Ratio 48 hr” value (T-47D cells) was 16.5.

— US6716851B2, “Substituted 2-aryl-4-arylaminopyrimidines and analogs as activators or caspases and inducers of apoptosis and the use thereof” (Cytovia, Inc., priority 2000, dated 2004)
